Assay results taken from patent US20240278234A1, “SAMPLE PREPARATION” (priority 2021, published 2024).

Test system: SARS-CoV-2 target genes E gene, RdRP gene and human RP (positive control)
Assay: RT-qPCR amplification (YouSeq E-RdRP kit) in the presence of lysis agents: test for PCR inhibition
Format: biochemical
Details: for qPCR amplification curves, FIG. 4: 2%-0.2% agent; for qPCR amplification curves, FIG. 5: 0.2% and 0.06% agent; for inhibition of amplification (summary of FIGS. 4 and 5): agents tested at 2%, 0.6%, 0.2% and 0.02%, 45 cycles
Procedure: An E-RdRP kit from YouSeq was used, which is designed to detect SARS-CoV-2, and includes a positive control containing the SARS-CoV-2 target genes E gene, RdRP gene and human RP (as an internal control). Each reaction included: • 10 μL MasterMix • 1 μL Primer/Probe • 3 μL Water • 1 μL Template or Water • 5 μL Buffers
PCR was carried out under the following conditions: • 55 C for 10 mins RT Step • 95 C for 3 mins denaturation • x45 Cycles • 95 C for 15 secs • 60 C for 60 secs
Amplification was monitored using a Quantstudio Q5.

| Compound | qPCR amplification curves, FIG. 4 | qPCR amplification curves, FIG. 5 | inhibition of amplification (summary of FIGS. 4 and 5) |
| --- | --- | --- | --- |
| [H]/N=C(\N/C(=N/[H])NCCCCCCNC(=N)NC(=N)Nc1ccc(Cl)cc1)Nc1ccc(Cl)cc1 [chlorhexidine] | Clear PCR inhibitions | no significant inhibition | inhibit at higher concentrations |
| CC(C)=CCCC(C)=CC=O [citral] | clear inhibitory effect between 2%-0.2% | no significant inhibition | inhibit at higher concentrations |
